The nature of the data set: xn = mol fraction of the nth substance listed. As to conditions: 101 kPa, Liquid, x2 = 0; for mass density: Vibrating tube method.

± gives the expanded uncertainty stated by the source.

Turning to `CC#N` [acetonitrile] + COCCO, under “298.15 K, Ecolab MPFU speed of sound meter”, the speed of sound (as a rule, the propagation velocity of pressure waves in the medium) worked out at 1279.6 ± 2 m/s. The mass density – broadly, the mass of a sample divided by its volume – is on record as 765.735 ± 0.13 kg/m3 (308.15 K) and 755.763 ± 0.14 kg/m3 (318.15 K).

The record behind these values is the NIST ThermoML archive (doi:10.1016/j.jct.2011.04.010).
